Source: PubChem BioAssay AID651761 (The Scripps Research Institute Molecular Screening Center, 2012)
Values joined by “and” are separate entries in the source; they are usually repeats but may differ in a detail not shown here. Identical values can stand only once. Active and inactive are the calls of the source. No rule for the calls is given here.

These compounds were tested against Perilipin-5 (Homo sapiens) + 1-acylglycerol-3-phosphate O-acyltransferase ABHD5 (Homo sapiens) (UniProt Q00G26+Q8WTS1) (assay: ABHD5-PLIN5 interaction inhibitors, late-stage follow-up, biochemical, luminescence (AID 651761)).
Perilipin-5 (Homo sapiens) + 1-acylglycerol-3-phosphate O-acyltransferase ABHD5 (Homo sapiens), sequence (Q00G26 whole entry, looked up): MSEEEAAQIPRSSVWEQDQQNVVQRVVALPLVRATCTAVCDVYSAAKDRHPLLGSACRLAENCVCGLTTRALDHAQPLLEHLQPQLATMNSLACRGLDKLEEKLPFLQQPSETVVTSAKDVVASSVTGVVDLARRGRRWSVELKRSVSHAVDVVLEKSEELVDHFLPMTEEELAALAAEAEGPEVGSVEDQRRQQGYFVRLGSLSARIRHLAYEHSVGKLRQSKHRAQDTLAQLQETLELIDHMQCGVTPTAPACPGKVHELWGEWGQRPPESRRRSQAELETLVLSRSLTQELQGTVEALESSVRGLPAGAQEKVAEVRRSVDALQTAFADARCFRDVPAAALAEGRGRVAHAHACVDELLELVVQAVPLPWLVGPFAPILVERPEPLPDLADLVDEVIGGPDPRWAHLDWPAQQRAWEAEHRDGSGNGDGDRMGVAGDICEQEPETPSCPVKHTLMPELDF
Perilipin-5 (Homo sapiens) + 1-acylglycerol-3-phosphate O-acyltransferase ABHD5 (Homo sapiens), sequence (Q8WTS1 whole entry, looked up): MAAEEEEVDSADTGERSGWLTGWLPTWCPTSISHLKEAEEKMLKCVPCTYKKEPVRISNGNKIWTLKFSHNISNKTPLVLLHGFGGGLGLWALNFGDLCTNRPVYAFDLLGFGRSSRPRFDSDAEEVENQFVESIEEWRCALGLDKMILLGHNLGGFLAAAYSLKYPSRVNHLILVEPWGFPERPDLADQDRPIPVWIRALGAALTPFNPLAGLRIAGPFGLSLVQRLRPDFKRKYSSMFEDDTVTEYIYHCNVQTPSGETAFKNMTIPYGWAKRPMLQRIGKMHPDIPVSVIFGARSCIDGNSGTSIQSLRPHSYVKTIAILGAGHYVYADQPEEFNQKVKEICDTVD
`NC(=NCCCCCCN=C(N)/N=C(\N)Nc1ccc(Cl)cc1)/N=C(\N)Nc1ccc(Cl)cc1` showed an IC50 of 2.64 µM. `CN(C)CCCN(C(=O)CCc1ccccc1)c1nc2ccc(Br)cc2s1` gave an IC50 of 8.16 µM. For `CCOC(=O)c1c(NC(C)=O)sc2c1CCC(C=O)=C2Sc1ccccc1`, the IC50 was 1.79 µM. `CCCNC(=O)Nc1ccc2c(c1)N(C)C(=O)c1ccccc1S2` was tested, and the IC50 was 7.42 µM. With `COc1cc2c(cc1OC)C(C)N(CCc1ccc(Cl)cc1)CC2` (stereo unspecified) the IC50 was “inactive”. With `CC(=O)Nc1ccc(S(=O)(=O)N2c3ccc(F)cc3CCC2C)cc1` (stereo unspecified) the IC50 was 6.48 µM. In the case of `CC1CCN(S(=O)(=O)c2ccc(NC(=O)Cc3ccccc3)cc2)CC1`, the IC50 is reported as 8.77 µM. In the case of `CCCCNC(=O)Nc1ccc2c(c1)N(C)C(=O)c1ccccc1S2`, the IC50 is reported as 3.02 µM. In the case of `CC1=CC(C)(C)Nc2ccc(OC(=O)C(C)N3C(=O)c4ccccc4C3=O)cc21` (stereo unspecified), the IC50 is reported as 3.02 µM. In the case of `Cc1cc(C)c2nc(NNC(=O)c3ccc(S(=O)(=O)N4CCCC(C)C4)cc3)sc2c1` (stereo unspecified), the IC50 is reported as 4.11 µM. `CC1CCN(S(=O)(=O)c2ccc(NC(=O)Cc3cccs3)cc2)CC1` gave an IC50 of 8.64 µM. `CCN(CC)CCN(CC(=O)Nc1c(C)cc(C)cc1C)C(=O)c1ccccc1` gave an IC50 of 5.67 µM. `O=c1[nH]c(C2CCN(S(=O)(=O)c3ccc(S(=O)(=O)NC4CC4)cc3)CC2)nc2c1nnn2Cc1ccc(F)cc1` was tested, and the IC50 was 3.42 µM. Work on `Cc1ccc2nc3cc([N+](=O)[O-])cc([N+](=O)[O-])c3cc2c1` yielded an IC50 of 0.619 µM. Work on `O=C(/C(=C/O)N=Nc1ccc(Cl)cc1)c1ccncc1` yielded an IC50 of 9.67 µM. Compound `CCN(CC)CCOc1ccc(/C(=C(/Cl)c2ccccc2)c2ccccc2)cc1` has an IC50 of 1.11 µM. With `Cc1nc2c(o1)CCc1ccccc1C2N1CCN(C)CC1` (stereo unspecified) the IC50 was 2.75 µM. `O=C(C[n+]1cccc(CNC(=O)c2ccc(OC(F)F)cc2)c1)Nc1cccc(C(F)(F)F)c1` was tested, and the IC50 was “inactive”. Compound `CN(C)CCCN(C(=O)CCc1ccccc1)c1nc2ccc(Cl)cc2s1` has an IC50 of 7.07 µM. `COc1ccc(NC(=S)N(CCCN2CCCC2)Cc2cccn2Cc2ccc(Cl)cc2)cc1Cl` was tested, and the IC50 was “inactive”. In the case of `CC(=O)Cc1cc(O)c2ccccc2c1OC(=O)c1ccc(Br)cc1`, the IC50 is reported as 2.68 µM. `CCOc1cc(N)c(Cl)cc1C(=O)NCC1CN(Cc2ccc(F)cc2)CCO1` (stereo unspecified) showed an IC50 of 1.34 µM. In the case of `Cc1cc(C)c(NC(=O)CN2CCN3CCCC3C2)c(C)c1` (stereo unspecified), the IC50 is reported as “inactive”. `O=c1[nH]c(C2CCN(S(=O)(=O)c3ccc(F)cc3)CC2)nc2c1nnn2Cc1ccc2c(c1)OCCO2` was tested, and the IC50 was “inactive”. Work on `COc1cc(OC)cc(C(=O)NC(=S)N(Cc2ccccc2)C(C)C)c1` yielded an IC50 of 1.44 µM. For `COc1ccccc1-c1cc(C(=O)NC2CCN(C)CC2)c2ccc(Cl)c(C)c2n1`, the IC50 was “inactive”. In the case of `Cc1ccc2c(CC(=O)N3CCN(S(=O)(=O)c4ccc5c(c4)OCCO5)CC3)coc2c1`, the IC50 is reported as 5 µM and 5.03 µM. With `CCN(CC)CCOCCOC(=O)C1(c2ccccc2)CCCC1` the IC50 was 0.985 µM. With `CN1CCC(=C2c3ccccc3CC(=O)c3sccc32)CC1` the IC50 was > 39.8 µM (inactive). `C=C[C@]1(C)C[C@@H](OC(=O)CSCCN(CC)CC)[C@]2(C)C(C)CC[C@]3(CCC(=O)[C@H]32)[C@@H](C)[C@@H]1O` (stereo partly specified) gave an IC50 of 8.02 µM. `COCCN(CCOC)c1nc(N)c2c(N)nc3c(c2c1C#N)CC(=O)N3Cc1ccc(Cl)cc1` was tested, and the IC50 was > 39.8 µM (inactive). In the case of `Cc1cc(C)c(NC(=O)C[N+](C)(C)CC(O)COc2cccc3ccccc23)c(C)c1` (stereo unspecified), the IC50 is reported as 4.32 µM. `CC(C)c1ccc(N2C=Nc3ccc(C(C)C)cc3C2)cc1` showed an IC50 of 1.56 µM. With `FC(F)(F)c1cccc(NC(=S)N(CCCN2CCCC2)Cc2cccn2Cc2ccc(Cl)cc2)c1` the IC50 was “inactive”. In the case of `CN(C)CCN(Cc1ccco1)c1ccccn1`, the IC50 is reported as > 39.8 µM (inactive). `COc1ccc(C)c2sc(N(CCN(C)C)C(=O)/C=C/c3cccs3)nc12` was tested, and the IC50 was 6.96 µM. `CN(C)CCOC1(Cc2ccc(F)cc2)CCC(C(C)(C)C)CC1` (stereo unspecified) was tested, and the IC50 was > 39.8 µM (inactive). `COc1cc(C)c2sc3ccccc3c(=O)c2c1NCCN(C)C` was tested, and the IC50 was > 39.8 µM (inactive). Compound `CCOC(=O)c1c(NC(=O)/C=C/C(=O)O)sc(C)c1-c1ccc(C(C)(C)C)cc1` has an IC50 of 5.05 µM. For `CC(=O)Oc1ccc(C23c4ccccc4C2(OC(C)=O)c2cc(OC(C)=O)ccc23)cc1` (stereo unspecified), the IC50 was > 39.8 µM (inactive). `CC(CCc1ccco1)NC(=O)CCc1nnc2ccc(NCc3ccccc3Cl)nn12` (stereo unspecified) showed an IC50 of 1.01 µM. With `CC(=O)Cc1cc(O)c2ccccc2c1OC(=O)c1ccccc1` the IC50 was 1.52 µM. In the case of `CCCCOC(=O)Nc1cc(C(=O)OC)ccc1C(=O)OC`, the IC50 is reported as 5.26 µM. `CC1Sc2ccc(S(=O)(=O)N3CCC(C(=O)NCc4ccc(Cl)cc4)CC3)cc2NC1=O` (stereo unspecified) was tested, and the IC50 was 8.56 µM. In the case of `CCN(CC)CCC(C)OC(c1ccccc1)c1ccccc1` (stereo unspecified), the IC50 is reported as 1.79 µM. `CCN(CC)CCNC(=O)c1ccc(NC(=O)c2cn(-c3ccccc3)nc2-c2cccs2)cc1` was tested, and the IC50 was “inactive”.
